Results on ten compounds are retold here after patent US7390837B2, “Germicidal compositions containing phenylmalonaldehyde-type compounds, or mixtures of phenylmalonaldehyde-type compounds and phthalaldehydes, and methods of using such compositions for disinfection or sterilization” (Ethicon, Inc., priority 2004, dated 2008).

Data set [1] relates to Mycobacterium terrae bacteria. Nature of the data set: bacterial suspension test. Type of data set: cell-based. The conditions noted are these: for Germicidal Efficacy: summary Table 14. On the procedure:
The bacterial suspension test that was employed is described in Section VII.
The solutions were prepared by adding the appropriate amounts of the germicidal compounds to an aqueous solution. Unless otherwise mentioned all concentrations reported herein are expressed in (w/v) %. The pH of the solution was not adjusted. The tests were conducted at a temperature of about 20° C. (room temperature). The results are presented in terms of log reductions/mL. It is understood that these examples, as well as the other examples herein, are to be construed as merely illustrative, and not limiting.
In this test method, 9 mL of the germicide to be tested is placed in a tube, put into a water bath and allowed to come to the desired temperature. One mL of the test organism, including at least 7 logs/mL of Mycobacterium terrae bacteria, is added to the 9 mL of the germicide to be tested. […] It will be appreciated by those skilled in the art that other concentrations may be utilized by proper dilution and accounting.
At appropriate time intervals, 1 mL aliquots of the germicide-cell suspension were removed and added directly into 9 mL of a 1% glycine solution (neutralizer) and mixed thoroughly to neutralize the germicide in the transferred suspension. The glycine solution was prepared from solid glycine, which is available from VWR Scientific Products, among others. The above-identified 10 mL neutralized solution was then poured through a membrane filter having an average pore size of 0.45 micrometers. The filter was then rinsed twice with at least 150 mL of the 1% glycine solution per rinse. The filter was then placed on an agar plate and incubated for twenty-one days at 37° C. In the above procedure, if dilution was needed, then the 1 mL germicidal-cell suspension was diluted in 99 mL of a phosphate buffer before addition to the 9 mL of the 1% glycine solution. The phosphate buffer was DiLu-LoK™ Butterfields Phosphate Buffer, available from Hardy Diagnostics, of Santa Maria, Calif.
The surviving colonies are then counted. The data is plotted as S/So vs. time. So is the initial count of the bacteria in the above 10 mL solution which is at least 10^6 bacteria/mL, and S is the surviving bacteria from the above filter on the agar plate. The results of the experiments were presented in terms of log reductions. Log reduction is the difference between log(So) and log(S). As one example, if log(So)=6.2, and if there were 100 survivors, then the log(S)=2, and the log reduction was reported as 4.2.

Another data set is described as follows: solubility in water. It counts as physicochemical.

Turning to `O=Cc1ccc(Cl)cc1C=O` [4-chloro-phthalaldehyde], the “Log Reductions/mL” value in data set [1] (2.7 w/v % in 20% isopropanol, 20° C., 5 min) is recorded as “Total Kill”.

For `O=Cc1ccc(F)cc1C=O` [4-fluoro-phthalaldehyde], the “Log Reductions/mL” value in data set [1] (0.25%, 20° C., exposure time 60 minutes) is “Total Kill”.

On to `O=Cc1ccccc1C(O)S(=O)(=O)[O-].[Na+]` (centres unmarked) [(2-formyl-phenyl)-hydroxy-methane sulfonic acid, sodium salt], for which the “Log Reductions/mL” value in data set [1] (9.1%, 20° C., 5 min, listed as (2-formyl-phenyl)-hydroxy-methane sulfonate, sodium salt) was “confluent”; in data set [1] (9.1%, 20° C., 5 min, listed as H-SULF, sodium salt) it was “Confluent”.

For the compound `O=CC(C=O)c1ccccc1` [phenyl-propanedial], the “Log Reductions/mL” value in data set [1] (0.4%, 20° C., 60 min (Table 5)) is “Total Kill”; in data set [1] (0.44%, 20° C., 60 min (Table 15)), “Total Kill”; in data set [1] (0.66%, 20° C., 15 min (Table 15)), “Total Kill”; in data set [1] (0.7%, 20° C., 15 min (Table 5)), “Total Kill”; in data set [1] (~1%, 20° C., 5 min (Table 15)) it was 4.5 log reductions/mL. In addition, in data set [1] (1% solution, 5 minutes, 20° C.), the logs killed entry was “more than 4 logs”. Moreover, in “solubility in water”, the solubility in water entry is listed as “about 1%”.

On to `O=Cc1ccccc1C=O` [OPA, phthalaldehyde], for which, in data set [1], the “Germicidal Efficacy” value is reported as “Good”. Moreover, in the data set “solubility in water”, the solubility in water entry is recorded as “about 5 % by weight”.

`O=Cc1cccc(C=O)c1` [IPA, isophthalaldehyde, reference compound]: the “Log Reductions/mL” value in data set [1] (0.3%, dissolved in 20% isopropanol, 20° C., 5 min (Table 11)) was “Confluent”; in data set [1] (0.3%, dissolved in 20% isopropanol, 20° C., 5 min (Table 11), listed as EPA) it was “confluent”; in data set [1] (0.3%, dissolved in 20% isopropanol, 20° C., 5 min (Table 15)), “Confluent”. The “Germicidal Efficacy” value in data set [1] is “Poor”.

Regarding `O=Cc1ccc(Br)cc1C=O` [4-bromo-phthalaldehyde], the “Log Reductions/mL” value in data set [1] (0.1%, 20° C., exposure time 30 minutes) is “Total Kill”.

Take 4-pyridinyl-propanedial: the “Log Reductions/mL” value in data set [1] (Saturated (~2.3% w/v), 5 min, 20° C.) came to 4.0 log reductions/mL.

Take `O=Cc1ccc(C=O)cc1` [TPA, terephthalaldehyde, reference compound]: in data set [1] (0.2%, dissolved in 20% isopropanol, 20° C., 5 min), the “Log Reductions/mL” value is “Confluent”. Moreover, the “Germicidal Efficacy” value in data set [1] is given as “Poor”.

Regarding `O=CC(c1ccccc1)C(O)S(=O)(=O)[O-].[Na+]` (centres unmarked) [1-hydroxy-3-oxo-2-phenyl-propane-1-sulfonic acid, sodium salt], the “Log Reductions/mL” value in data set [1] (0.6%, 20° C., 60 min, sodium salt) is “Total Kill”; in data set [1] (2.5%, 20° C., 10 min, sodium salt), “total kill”.
